Laboratory results from PubChem BioAssay AID1259408 (Genetic Toxicology Data Bank (GENE-TOX), 2018).
Activity calls are given as the source filed them. How the calls were made is not given here.

Test system: GENE-TOX genotoxicity assays, various organisms and cells
Experiment: GENE-TOX mutagenicity studies
Settings: for call: Assay Type: In vivo carcinogenicity studies
[1] = Species/Cell Type: Bacillus subtilis (H17 vs M45), Assay Type: Rec-assay, spot test, DNA effects (bacterial DNA repair), Assay Code: REW+, Evaluation Type: Evaluation A (Pre-1980)
[2] = Species/Cell Type: Drosophila melanogaster, Assay Type: Sex-linked recessive lethal gene mutation, Assay Code: SRL+, Evaluation Type: Evaluation A (Pre-1980)
[3] = Species/Cell Type: Nonhuman, Assay Code: CCG-, Evaluation Type: Evaluation A (Pre-1980)
[4] = Species/Cell Type: Salmonella typhimurium (one or more of the five standard strains: TA98, TA100, TA1535, TA1537, and TA1538), Assay Type: Histidine reverse gene mutation, Ames assay, Assay Code: SAL+, Evaluation Type: Evaluation A (Pre-1980)
[5] = Species/Cell Type: Nonhuman, Assay Code: CCGT, Evaluation Type: Evaluation A (Pre-1980)
[6] = Species/Cell Type: Salmonella typhimurium (one or more of the five standard strains: TA98, TA100, TA1535, TA1537, and TA1538), Assay Type: Histidine reverse gene mutation, Ames assay, Assay Code: SALT, Evaluation Type: Evaluation A (Pre-1980)
[7] = Species/Cell Type: Bacillus subtilis (H17 vs M45), Assay Type: Rec-assay, spot test, DNA effects (bacterial DNA repair), Assay Code: REWT, Evaluation Type: Evaluation A (Pre-1980)
[8] = Species/Cell Type: Human, Assay Type: Sister-chromatid exchange (SCE) in vitro, Assay Code: SC1T, Evaluation Type: Evaluation B (Post-1980)
[9] = Species/Cell Type: Nonhuman, Assay Type: Sister-chromatid exchange (SCE) in vitro, Assay Code: SC2T, Evaluation Type: Evaluation B (Post-1980)
[10] = Species/Cell Type: Bacillus subtilis (H17 vs M45T), Assay Type: Rec-assay, spot test, DNA effects (bacterial DNA repair), Assay Code: REXT, Evaluation Type: Evaluation A (Pre-1980)
[11] = Species/Cell Type: Saccharomyces cerevisiae, Assay Type: Mitotic recombination or gene conversion, Assay Code: YEC-, Evaluation Type: Evaluation A (Pre-1980)

## Cn1cc[nH]c1=S
Species/Cell Type: Mammalian polychromatic erythrocytes, Assay Type: Micronucleus test, chromosome aberrations, Assay Code: MNTT, Evaluation Type: Evaluation B (Post-1980)
  mutagenic call: no conclusion

## ClC(Cl)(Cl)c1ccccc1
[1]
  mutagenic call: active; positive
Species/Cell Type: Nonhuman, Assay Code: CCG+, Evaluation Type: Evaluation A (Pre-1980)
  call: active; positive

## CNC(=O)Oc1cc(C)cc(C)c1
Species/Cell Type: Bacillus subtilis (H17 vs M45T), Assay Type: Rec-assay, spot test, DNA effects (bacterial DNA repair), Assay Code: REX-, Evaluation Type: Evaluation A (Pre-1980)
  mutagenic call: inactive; negative
Species/Cell Type: Escherichia coli WP2, Assay Type: Tryptophan reverse gene mutation, Assay Code: WP2-, Evaluation Type: Evaluation A (Pre-1980)
  mutagenic call: inactive; negative

## S=C(S)NCCNC(=S)S
Species/Cell Type: Allium cepa, Assay Type: Chromosome aberrations, Assay Code: ALC+D, Dose Response: With dose response, Evaluation Type: Evaluation A (Pre-1980)
  mutagenic call: active; positive

## Nc1ccc([N+](=O)[O-])cc1N
[2]
  mutagenic call: active; positive
Species/Cell Type: Fischer rat embryo (RLV/1706) cells, Assay Type: Cell transformation, viral enhanced, Assay Code: CTR+, Evaluation Type: Evaluation A (Pre-1980)
  mutagenic call: active; positive
Species/Cell Type: Human diploid fibroblasts, Assay Type: Unscheduled DNA synthesis (UDS) in vitro, DNA effects, Assay Code: UDHT, Evaluation Type: Evaluation A (Pre-1980)
  mutagenic call: no conclusion
Species/Cell Type: Mammalian polychromatic erythrocytes, Assay Type: Micronucleus test, chromosome aberrations, Assay Code: MNTT, Evaluation Type: Evaluation A (Pre-1980)
  mutagenic call: no conclusion
Species/Cell Type: Mouse (C3H/10T1/2) cells, Assay Type: Cell transformation, Assay Code: CTH+, Evaluation Type: Evaluation A (Pre-1980)
  mutagenic call: active; positive
Species/Cell Type: Mouse, Sex: Male, Assay Type: Sperm morphology, Assay Code: SPI-, Evaluation Type: Evaluation A (Pre-1980)
  mutagenic call: inactive; negative
Species/Cell Type: Neurospora crassa, Assay Type: Aneuploidy, chromosome aberrations, Assay Code: NEN-, Evaluation Type: Evaluation A (Pre-1980)
  mutagenic call: inactive; negative
Species/Cell Type: Nonhuman, Assay Type: Chromosome aberrations in vitro, Assay Code: CY&+D, Dose Response: With dose response, Evaluation Type: Evaluation A (Pre-1980)
  mutagenic call: active; positive
[3]
  call: inactive; negative
Species/Cell Type: Nonhuman, Assay Type: Sister-chromatid exchange (SCE) in vitro, Assay Code: SC2+D, Dose Response: With dose response, Evaluation Type: Evaluation A (Pre-1980)
  mutagenic call: active; positive
Species/Cell Type: Nonhuman, Sex: Male, Assay Type: Sister-chromatid exchange (SCE) in vivo, Assay Code: SC3TM, Evaluation Type: Evaluation B (Post-1980)
  mutagenic call: no conclusion
Species/Cell Type: Rodents, Sex: Male, Assay Type: Dominant lethal test, Assay Code: DLTT, Evaluation Type: Evaluation A (Pre-1980)
  mutagenic call: no conclusion
Species/Cell Type: Saccharomyces cerevisiae, Assay Type: Reverse gene mutation, Assay Code: YER-, Evaluation Type: Evaluation A (Pre-1980)
  mutagenic call: inactive; negative
[4]
  mutagenic call: active; positive
Species/Cell Type: Salmonella typhimurium, Assay Type: Forward and reverse gene mutation, body fluid assay, Assay Code: BFU+, Evaluation Type: Evaluation A (Pre-1980)
  mutagenic call: active; positive
Species/Cell Type: Syrian hamster embryo (SHE) cells, Assay Type: Cell transformation, clonal assay, Assay Code: CTC+, Evaluation Type: Evaluation A (Pre-1980)
  mutagenic call: active; positive

## Cc1nc(-c2ccc([N+](=O)[O-])o2)cs1
Species/Cell Type: Nonhuman, Assay Type: Sister-chromatid exchange (SCE) in vitro, Assay Code: SC2+D, Dose Response: With dose response, Evaluation Type: Evaluation B (Post-1980)
  mutagenic call: active; positive
[4]
  mutagenic call: active; positive

## CC(C)(C)OO
Species/Cell Type: Neurospora crassa, Assay Type: Reverse gene mutation, Assay Code: NER+, Evaluation Type: Evaluation A (Pre-1980)
  mutagenic call: active; positive
Species/Cell Type: Saccharomyces cerevisiae, Assay Type: Mitotic recombination or gene conversion, Assay Code: YEC+, Evaluation Type: Evaluation A (Pre-1980)
  mutagenic call: active; positive
Species/Cell Type: Vicia faba, Assay Type: Chromosome aberrations, Assay Code: VIC+, Evaluation Type: Evaluation A (Pre-1980)
  mutagenic call: active; positive

## O=C1C=Cc2ccc3c4c(ccc1c24)C(=O)c1ccccc1-3
Species/Cell Type: Chinese hamster lung (V79) cells, Assay Type: Forward gene mutation at the HPRT or ouabain locus, Assay Code: V79+, Evaluation Type: Evaluation A (Pre-1980)
  mutagenic call: active; positive
[5]
  call: no conclusion
[6]
  mutagenic call: no conclusion

## CC1=CC2=C(C=O)C(=O)[C@](C)(O)[C@@H](O)C2=CO1
[4]
  mutagenic call: active; positive

## COP(=S)(OC)Oc1ccc(SC)c(C)c1
[7]
  mutagenic call: no conclusion
Species/Cell Type: Drosophila melanogaster, Assay Type: Sex-linked recessive lethal gene mutation, Assay Code: SRLT, Evaluation Type: Evaluation A (Pre-1980)
  mutagenic call: no conclusion
Species/Cell Type: Escherichia coli WP2 UVRA, Assay Type: Tryptophan reverse gene mutation, Assay Code: WPU-*, Activation: With metabolic activation, Evaluation Type: Evaluation A (Pre-1980)
  mutagenic call: inactive; negative
Species/Cell Type: Escherichia coli polA (W3119 vs P3478), Assay Type: Rec-assay, DNA effects (bacterial DNA repair), Assay Code: RE1T, Evaluation Type: Evaluation A (Pre-1980)
  mutagenic call: no conclusion
Species/Cell Type: Human diploid fibroblasts, Assay Type: Unscheduled DNA synthesis (UDS) in vitro, DNA effects, Assay Code: UDH-, Evaluation Type: Evaluation A (Pre-1980)
  mutagenic call: inactive; negative
[8]
  mutagenic call: no conclusion
Species/Cell Type: Nonhuman, Assay Type: Sister-chromatid exchange (SCE) in vitro, Assay Code: SC2+D*, Activation: With metabolic activation, Dose Response: With dose response, Evaluation Type: Evaluation B (Post-1980)
  mutagenic call: active; positive
Species/Cell Type: Saccharomyces cerevisiae, Assay Type: Mitotic recombination or gene conversion, Assay Code: YEH-, Evaluation Type: Evaluation A (Pre-1980)
  mutagenic call: inactive; negative

## COc1cc(NNc2ccccc2)ccc1N=O
[4]
  mutagenic call: active; positive

## FC(F)OC(F)(F)C(F)Cl (stereo not drawn)
Species/Cell Type: Chinese hamster lung (V79) cells, Assay Type: Forward gene mutation at the HPRT or ouabain locus, Assay Code: V79-, Evaluation Type: Evaluation A (Pre-1980)
  mutagenic call: inactive; negative
Species/Cell Type: Human lymphocytes, Assay Type: Sister-chromatid exchange (SCE) in vivo, Assay Code: SCY+, Evaluation Type: Evaluation B (Post-1980)
  mutagenic call: active; positive
Species/Cell Type: Mouse, Sex: Male, Assay Type: Sperm morphology, Assay Code: SPIT, Evaluation Type: Evaluation A (Pre-1980)
  mutagenic call: no conclusion
[9]
  mutagenic call: no conclusion
[6]
  mutagenic call: no conclusion

## O=S(=O)(O)c1ccc(N=Nc2c(O)ccc3cc(S(=O)(=O)O)ccc23)cc1
[7]
  mutagenic call: no conclusion
[10]
  mutagenic call: no conclusion
[3]
  call: inactive; negative
Species/Cell Type: Nonhuman, Assay Type: Sister-chromatid exchange (SCE) in vitro, Assay Code: SC2T, Evaluation Type: Evaluation A (Pre-1980)
  mutagenic call: no conclusion
[11]
  mutagenic call: inactive; negative
Species/Cell Type: Salmonella typhimurium (one or more of the five standard strains: TA98, TA100, TA1535, TA1537, and TA1538), Assay Type: Histidine reverse gene mutation, Ames assay, Assay Code: SAL-, Evaluation Type: Evaluation A (Pre-1980)
  mutagenic call: inactive; negative

## COC(C)C(O)(C(=O)OCC1=CC[N+]2([O-])CC[C@H](O)[C@H]12)C(C)C (stereo partly drawn)
[2]
  mutagenic call: active; positive

## [Cl][Pt]([Cl])([Cl])[Cl]
[1]
  mutagenic call: active; positive
[2]
  mutagenic call: active; positive

## COc1cc([C@@H]2c3cc4c(cc3[C@@H](O)[C@H]3COC(=O)[C@H]23)OCO4)cc(OC)c1O
Species/Cell Type: Chinese hamster ovary (CHO) cells, Assay Type: Forward gene mutation at the HPRT locus, Assay Code: CHOT, Evaluation Type: Evaluation B (Post-1980)
  mutagenic call: no conclusion

## Cc1ccccc1N=Nc1ccc(N=Nc2c(O)ccc3ccccc23)c(C)c1
[6]
  mutagenic call: no conclusion
Species/Cell Type: Syrian hamster embryo (SA7/SHE) cells, Assay Type: Cell transformation, viral enhanced, Assay Code: CT7+, Evaluation Type: Evaluation A (Pre-1980)
  mutagenic call: active; positive

## Cc1c2ccccc2c(C)c2c1cc(O)c1ccccc12
Species/Cell Type: Chinese hamster lung (V79) cells, Assay Type: Forward gene mutation at the HPRT or ouabain locus, Assay Code: V79-*, Activation: With metabolic activation, Evaluation Type: Evaluation A (Pre-1980)
  mutagenic call: inactive; negative
[5]
  call: no conclusion

## COc1ccc(C(=O)/C(Br)=C/C(=O)O)cc1
Species/Cell Type: Human bone marrow, Assay Type: Chromosome aberrations in vivo, Assay Code: CY5+, Evaluation Type: Evaluation A (Pre-1980)
  mutagenic call: active; positive
Species/Cell Type: Nonhuman bone marrow, Assay Type: Chromosome aberrations, in vivo, Assay Code: CY#+D, Dose Response: With dose response, Evaluation Type: Evaluation A (Pre-1980)
  mutagenic call: active; positive

## Nc1ccc2ccccc2c1N=Nc1ccccc1
[6]
  mutagenic call: no conclusion

## CC[n+]1c(-c2ccccc2)c2cc(N=[N+]=[N-])ccc2c2ccc(N)cc21
[6]
  mutagenic call: no conclusion

## O=C(O)c1c(Cl)c(Cl)c(Cl)c(Cl)c1-c1c2cc(I)c(=O)c(I)c-2oc2c(I)c(O)c(I)cc12
[7]
  mutagenic call: no conclusion
[10]
  mutagenic call: no conclusion
[8]
  mutagenic call: no conclusion
[9]
  mutagenic call: no conclusion
[11]
  mutagenic call: inactive; negative
